Columns and labels:
[1] = system: mechanical blink response in normal rats; assay: corneal anesthetic activity, blinks induced by mechanical touch (Cochet-Bonnet Esthesiometer); type: in vivo, Sprague Dawley rats; details: rat; for Total number of Blinks/Total number of Touches: 20 μl topical ocular, N = 6/group; for Total number of Blinks/Total number of Touches / % Blocked (mechanical blink response): pretreatment 5 min; for % Blocked (mechanical blink response): topical ocular; for inhibition of mechanical blink response / topical anesthetic activity (in words): 1% concentration
Description: Corneal anesthetic effects of TRPV1 antagonists were examined by analyzing suppression of blinks induced by mechanical touch. A Cochet-Bonnet Esthesiometer was used to determine corneal anesthetic activities of the TRPV1 antagonist, AMG-517 (AL-49975), in normal rats. Male Sprague Dawley rats (˜500 g) were divided into groups of 6 each, restrained in a DecapiCone rat restraint, and secured at the posterior with tape. A hole was cut into the cone to expose the right eye. Twenty-four hours prior to the experiment the eyelashes and whiskers were trimmed with scissors. The right eye was dosed with 20 μl of drug or maxidex vehicle, and the timer was set for 5 minutes to allow the rat time to acclimate. The Cochet-Bonnet Esthesiometer fiber was set at 30 mm and perpendicularly touched by a masked observer to the center of the cornea 10 times with a 3 second delay between counts. Blinks were counted with each touch of the fiber, and a total score out of 10 was recorded. If more than one blink occurred in response to a single touch, this event was counted as one blink response.

[2] = system: Formalin-Induced Blink Response in Rats; assay: formalin-induced blink response assay (ocular pain); type: in vivo, Sprague-Dawley rats; details: rat; for Number of Blinks/1 min Mean ± S.D.: 20 μL topical ocular, 0.1% formalin challenge; for Number of Blinks/1 min Mean ± S.D. / % Inhibition of formalin-induced blink response: pretreatment 5 min; for % Inhibition of formalin-induced blink response: topical ocular; for inhibition of formalin-induced blink response (in words): highest concentration tested (1%)
Experimental: The effects of two transient receptor potential vanilloid receptor subfamily, member 1 (TRPV1) antagonists on ocular pain in rats were tested using a formalin-induced blink response assay. Sprague-Dawley rats were treated topical ocular with 20 μL of vehicle (maxidex vehicle), N-{4-[6-(4-trifluoromethyl-phenyl)-pyrimidin-4-yloxy]-benzothiazol-2-yl}-acetamide (AL-49975, also known as AMG-517, Amgen Inc., Thousand Oaks, Calif.), or (R)—N-(4-(6-(4-(1-(4-fluorophenyl)ethyl)piperazin-1-yl)pyrimidin-4-yloxy)benzo[d]thiazol-2-yl)acetamide (AL-49976, also known as AMG-628, Amgen Inc., Thousand Oaks, Calif.) to one eye only. After the appropriate pretreatment time of about 5 minutes, 5 μL of 0.1% formalin was applied topical ocular. Each rat was placed in a clear plastic box, and the number of blinks was counted for 1 minute immediately following the formalin challenge.

[3] = 1% conc., *p < 0.05 Dunnett's t-test

Structure (SMILES): CCCOc1ccc(C(=O)OCCN(CC)CC)cc1N [Alcaine, proparacaine, reference compound]
- Total number of Blinks/Total number of Touches ([1]; 0.5%): 2/60
- % Blocked (mechanical blink response) ([1]; 0.5%, *p < 0.01 Chi-squared vs. vehicle): 97* %
- % Blocked (mechanical blink response) ([1]; 0.5%, *p < 0.01 Chi-squared vs. vehicle, listed as proparacaine): 95%

Structure (SMILES): CC(=O)Nc1nc2c(Oc3cc(-c4ccc(C(F)(F)F)cc4)ncn3)cccc2s1 [AL-49975, N-{4-[6-(4-trifluoromethyl-phenyl)-pyrimidin-4-yloxy]-benzothiazol-2-yl}-acetamide]
- Number of Blinks/1 min Mean ± S.D. ([2]; 0.01% conc.): 58 ± 11 Blinks/1 min
- % Inhibition of formalin-induced blink response ([2]; 0.01% conc.): 20%
- Number of Blinks/1 min Mean ± S.D. ([2]; 0.1% conc.): 51 ± 18 Blinks/1 min
- % Inhibition of formalin-induced blink response ([2]; 0.1% conc.): 29%
- Number of Blinks/1 min Mean ± S.D. ([2]; 1% conc.): 44 ± 17 Blinks/1 min
- % Inhibition of formalin-induced blink response [2, 3]: 39* %
- inhibition of formalin-induced blink response (in words) [2]: dose-dependent fashion, achieving significant inhibition
- inhibition of mechanical blink response / topical anesthetic activity (in words) [1]: did not significantly inhibit the blink response
- inhibition of mechanical blink response / topical anesthetic activity (in words) ([1]; listed as AMG-517): did not have topical anesthetic activity
- Total number of Blinks/Total number of Touches ([1]; 1%): 54/60
- % Blocked (mechanical blink response) ([1]; 1%): 10%

Structure (SMILES): CC(=O)Nc1nc2c(Oc3cc(N4CCN([C@H](C)c5ccc(F)cc5)CC4)ncn3)cccc2s1 [AL-49976, (R)—N-(4-(6-(4-(1-(4-fluorophenyl)ethyl)piperazin-1-yl)pyrimidin-4-yloxy)benzo[d]thiazol-2-yl)acetamide]
- Number of Blinks/1 min Mean ± S.D. ([2]; 0.01% conc.): 58 ± 7 Blinks/1 min
- % Inhibition of formalin-induced blink response ([2]; 0.01% conc.): 19%
- Number of Blinks/1 min Mean ± S.D. ([2]; 0.1% conc.): 66 ± 23 Blinks/1 min
- % Inhibition of formalin-induced blink response ([2]; 0.1% conc.): 9%
- Number of Blinks/1 min Mean ± S.D. ([2]; 1% conc.): 47 ± 11 Blinks/1 min
- % Inhibition of formalin-induced blink response [2, 3]: 35* %
- inhibition of formalin-induced blink response (in words) [2]: significantly inhibited the pain response
